Assay results as given in patent US10865208B2, “ATG7 inhibitors and the uses thereof” (Millennium Pharmaceuticals, Inc., priority 2016, dated 2020).

Target: recombinant human His-ATG7 enzyme (Homo sapiens (Human), UniProt O95352)
Experiment: ATG7 Enzyme Assay (HTRF/FRET, ATG3-GST and Flag-Gabarap)
Type: biochemical
Conditions: for inhibition at 0.069 µM: Concentration 0.069 μM; for inhibition at 0.069 µM / inhibition at 0.123 µM: read-out: Percent Inhibition; for inhibition at 0.123 µM: Concentration 0.123 μM
Experimental: Example 97: ATG7 Enzyme Assay
The total volume of the ATG7 enzymatic assay is 50 μL and contains 50 mM HEPES Hemisodium (pH 7.5), 0.05% BSA, 0.01% Tween-20, 25 mM NaCl, 5 mM MgCl2, 10 μM ATP, 250 μM GSH, 5 nM ATG3-GST, 5 nM Flag-Gabarap, 100 μM TCEP and 0.15 nM recombinant human His-ATG7 enzyme. The enzymatic reaction mixture, with and without inhibitor, was incubated at 24° C. for 105 min in a 384-well plate before termination with […] of Stop/Detection buffer (0.1M HEPES Hemisodium pH 7.5, 0.05% Tween20, 20 mM EDTA, 410 mM KF, 0.53 nM Europium-Cryptate labeled monoclonal anti-Flag M2 Antibody (CisBio International) and 8.125 μg/ml PHYCOLINK goat anti-GST allophycocyanin (XL-APC) antibody (Prozyme)). After incubation for 2 hours at 24° C., quantification of FRET is performed on the Pherostar™ (BMG Labtech). Percentage inhibition values at a single concentration or enzyme inhibition (IC50) values are determined from those curves. One skilled in the art will appreciate that the values generated either as percentage inhibition at a single concentration or IC50 values are subject to experimental variation.

Chain of recombinant human His-ATG7 enzyme (O95352 whole entry): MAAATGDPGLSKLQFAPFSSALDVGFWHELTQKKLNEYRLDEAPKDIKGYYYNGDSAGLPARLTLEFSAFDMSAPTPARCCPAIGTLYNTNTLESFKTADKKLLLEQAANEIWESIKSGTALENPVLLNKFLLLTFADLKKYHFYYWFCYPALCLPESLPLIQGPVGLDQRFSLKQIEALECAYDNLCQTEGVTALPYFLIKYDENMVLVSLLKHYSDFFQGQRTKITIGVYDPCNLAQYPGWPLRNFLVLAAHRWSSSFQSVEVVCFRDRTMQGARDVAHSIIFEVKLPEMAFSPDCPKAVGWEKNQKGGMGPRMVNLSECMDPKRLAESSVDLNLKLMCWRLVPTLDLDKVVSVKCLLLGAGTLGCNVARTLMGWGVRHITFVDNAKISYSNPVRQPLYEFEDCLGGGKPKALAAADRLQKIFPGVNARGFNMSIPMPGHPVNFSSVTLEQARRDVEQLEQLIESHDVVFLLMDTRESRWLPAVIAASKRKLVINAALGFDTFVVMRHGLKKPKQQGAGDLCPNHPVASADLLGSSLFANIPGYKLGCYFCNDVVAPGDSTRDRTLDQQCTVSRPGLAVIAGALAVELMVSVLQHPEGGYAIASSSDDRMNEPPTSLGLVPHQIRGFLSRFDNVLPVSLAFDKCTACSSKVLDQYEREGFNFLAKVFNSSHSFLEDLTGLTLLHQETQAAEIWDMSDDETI

SMILES: CC(C)Oc1nn([C@@H]2O[C@H](COS(N)(=O)=O)[C@@H](O)[C@H]2O)c2ncnc(N)c12 [Compound I-7, [(2R,3S,4R,5R)-5-(4-amino-3-isopropoxy-1H-pyrazolo[3,4-d]pyrimidin-1-yl)-3,4-dihydroxytetrahydrofuran-2-yl]methyl sulfamate]
- IC50: > 0.5 µM
- inhibition at 0.069 µM: 7%

SMILES: Nc1ncnc2c1c(CO)nn2[C@@H]1O[C@H](COS(N)(=O)=O)[C@@H](O)[C@H]1O [Compound I-8, {(2R,3S,4R,5R)-5-[4-amino-3-(hydroxymethyl)-1H-pyrazolo[3,4-d]pyrimidin-1-yl]-3,4-dihydroxytetrahydrofuran-2-yl}methyl Sulfamate]
- IC50: 0.1 to 0.5 µM
- inhibition at 0.069 µM: 32%

SMILES: C#Cc1nn([C@@H]2O[C@H](COS(N)(=O)=O)[C@@H](O)[C@H]2O)c2ncnc(N)c12 [Compound I-9, [(2R,3S,4R,5R)-5-(4-amino-3-ethynyl-1H-pyrazolo[3,4-d]pyrimidin-1-yl)-3,4-dihydroxytetrahydrofuran-2-yl]methyl Sulfamate]
- IC50: 0.05 to 0.1 µM
- inhibition at 0.069 µM: 52%

SMILES: Nc1ncnc2c1c(C(F)(F)F)nn2[C@@H]1O[C@H](COS(N)(=O)=O)[C@@H](O)[C@H]1O [Compound I-10, {(2R,3S,4R,5R)-5-[4-amino-3-(trifluoromethyl)-1H-pyrazolo[3,4-d]pyrimidin-1-yl]-3,4-dihydroxytetrahydrofuran-2-yl}methyl Sulfamate]
- IC50: 0.05 to 0.1 µM
- inhibition at 0.069 µM: 48%

SMILES: COCC#Cc1nn([C@@H]2O[C@H](COS(N)(=O)=O)[C@@H](O)[C@H]2O)c2ncnc(N)c12 [Compound I-11, {(2R,3S,4R,5R)-5-[4-amino-3-(3-methoxyprop-1-yn-1-yl)-1H-pyrazolo[3,4-d]pyrimidin-1-yl]-3,4-dihydroxytetrahydrofuran-2-yl}methyl Sulfamate]
- IC50: > 0.5 µM
- inhibition at 0.069 µM: 9%

SMILES: Nc1ncnc2c1c(CCc1ccccc1)nn2[C@@H]1O[C@H](COS(N)(=O)=O)[C@@H](O)[C@H]1O [Compound I-12, {(2R,3S,4R,5R)-5-[4-amino-3-(2-phenylethyl)-1H-pyrazolo[3,4-d]pyrimidin-1-yl]-3,4-dihydroxytetrahydrofuran-2-yl}methyl Sulfamate]
- IC50: 0.1 to 0.5 µM
- inhibition at 0.123 µM: 20%

SMILES: N#Cc1nn([C@@H]2O[C@H](COS(N)(=O)=O)[C@@H](O)[C@H]2O)c2ncnc(N)c12 [Compound I-13, [(2R,3S,4R,5R)-5-(4-amino-3-cyano-1H-pyrazolo[3,4-d]pyrimidin-1-yl)-3,4-dihydroxytetrahydrofuran-2-yl]methyl Sulfamate]
- IC50: 0.02 to 0.05 µM
- inhibition at 0.123 µM: 80%

SMILES: CC#Cc1nn([C@@H]2O[C@H](COS(N)(=O)=O)[C@@H](O)[C@H]2O)c2ncnc(N)c12 [Compound I-14, {(2R,3S,4R,5R)-5-[4-amino-3-(prop-1-yn-1-yl)-1H-pyrazolo[3,4-d]pyrimidin-1-yl]-3,4-dihydroxytetrahydrofuran-2-yl}methyl Sulfamate]
- IC50: 0.1 to 0.5 µM
- inhibition at 0.069 µM: 17%

SMILES: NCc1nn([C@@H]2O[C@H](COS(N)(=O)=O)[C@@H](O)[C@H]2O)c2ncnc(N)c12 [Compound I-15, {(2R,3S,4R,5R)-5-[4-amino-3-(aminomethyl)-1H-pyrazolo[3,4-d]pyrimidin-1-yl]-3,4-dihydroxytetrahydrofuran-2-yl}methyl Sulfamate]
- IC50: > 0.5 µM
- inhibition at 0.069 µM: 16%

SMILES: NC(=O)c1nn([C@@H]2O[C@H](COS(N)(=O)=O)[C@@H](O)[C@H]2O)c2ncnc(N)c12 [Compound I-16, [(2R,3S,4R,5R)-5-(4-amino-3-carbamoyl-1H-pyrazolo[3,4-d]pyrimidin-1-yl)-3,4-dihydroxytetrahydrofuran-2-yl]methyl Sulfamate]
- IC50: 0.1 to 0.5 µM
- inhibition at 0.069 µM: 22%

SMILES: NCC#Cc1nn([C@@H]2O[C@H](COS(N)(=O)=O)[C@@H](O)[C@H]2O)c2ncnc(N)c12 [Compound I-17, {(2R,3S,4R,5R)-5-[4-amino-3-(3-aminoprop-1-yn-1-yl)-1H-pyrazolo[3,4-d]pyrimidin-1-yl]-3,4-dihydroxytetrahydrofuran-2-yl}methyl Sulfamate]
- IC50: > 0.5 µM
- inhibition at 0.069 µM: 10%
